PubChem BioAssay AID2060907 (Molecular Pharmacology Branch, DTP, NCI, 2025)

System: 388556-164-R-J1-PDC complex spheroid viability
Test: Anticancer human tumor 388556-164-R-J1-PDC patient-derived colon adenocarcinoma cell line growth inhibition [RAS]
Settings: for IC50: curve of first compound; for viability, T/C: stronger effect = lower value
Outline: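 Tumour cells grown as complex spheroids with HUVEC endothelial cells and mesenchymal stem cells, treated with RAS pathway inhibitor combinations. Each agent spans half-log steps from near clinical Cmax, or 10 microM where Cmax is unknown.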

[1] = second compound 0.000949 µM, first compound 0.0316 µM
[2] = second compound 0.000949 µM, first compound 0.1 µM
[3] = second compound 0.000949 µM, first compound 0.316 µM
[4] = second compound 0.000949 µM, first compound 1 µM
[5] = second compound 0.003 µM, first compound 0.0316 µM
[6] = second compound 0.003 µM, first compound 0.1 µM
[7] = second compound 0.003 µM, first compound 0.316 µM
[8] = second compound 0.003 µM, first compound 1 µM
[9] = second compound 0.00949 µM, first compound 0.0316 µM
[10] = second compound 0.00949 µM, first compound 0.1 µM
[11] = second compound 0.00949 µM, first compound 0.316 µM
[12] = second compound 0.00949 µM, first compound 1 µM
[13] = second compound 0.03 µM, first compound 0.0316 µM
[14] = second compound 0.03 µM, first compound 0.1 µM
[15] = second compound 0.03 µM, first compound 0.316 µM
[16] = second compound 0.03 µM, first compound 1 µM
[17] = second compound 0.0949 µM, first compound 0.0316 µM
[18] = second compound 0.0949 µM, first compound 0.1 µM
[19] = second compound 0.0949 µM, first compound 0.316 µM
[20] = second compound 0.0949 µM, first compound 1 µM
[21] = second compound 0.3 µM, first compound 0.0316 µM
[22] = second compound 0.3 µM, first compound 0.1 µM
[23] = second compound 0.3 µM, first compound 0.316 µM
[24] = second compound 0.3 µM, first compound 1 µM
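Further: spheroids exposed to compound for 7 days before readout.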
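Wherever viability, T/C is given: 100% = DMSO vehicle control luminescence.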

## CC(=O)OC12COC1CC(O)C1(C)C(=O)C(O)C3=C(C)C(OC(=O)C(O)C(NC(=O)OC(C)(C)C)c4ccccc4)CC(O)(C(OC(=O)c4ccccc4)C21)C3(C)C (stereo unspecified) + CCn1c(-c2cc(N3CCN(C)CC3)cnc2C(C)OC)c2c3cc(ccc31)-c1csc(n1)CC(NC(=O)C1CC1C)C(=O)N1CCCC(N1)C(=O)OCC(C)(C)C2
Second compound 0.000949 µM
  IC50: > 10000 nM
Second compound 0.003 µM
  IC50: > 10000 nM
Second compound 0.00949 µM
  IC50: 510 nM
Second compound 0.03 µM
  IC50: < 31.6 nM
Second compound 0.0949 µM
  IC50: < 31.6 nM
Second compound 0.3 µM
  IC50: < 31.6 nM
[1]
  viability, T/C: 77.2%
[2]
  viability, T/C: 63.2%
[3]
  viability, T/C: 63.7%
[4]
  viability, T/C: 66.1%
Second compound 0.000949 µM, first compound 3.16 µM
  viability, T/C: 69.2%
Second compound 0.000949 µM, first compound 10 µM
  viability, T/C: 59.6%
[5]
  viability, T/C: 76.4%
[6]
  viability, T/C: 61.6%
[7]
  viability, T/C: 54%
[8]
  viability, T/C: 59.1%
Second compound 0.003 µM, first compound 3.16 µM
  viability, T/C: 55.1%
Second compound 0.003 µM, first compound 10 µM
  viability, T/C: 50.4%
[9]
  viability, T/C: 65.3%
[10]
  viability, T/C: 57.1%
[11]
  viability, T/C: 52.8%
[12]
  viability, T/C: 43.9%
Second compound 0.00949 µM, first compound 3.16 µM
  viability, T/C: 50.4%
Second compound 0.00949 µM, first compound 10 µM
  viability, T/C: 41.2%
[13]
  viability, T/C: 46.9%
[14]
  viability, T/C: 42.3%
[15]
  viability, T/C: 40.1%
[16]
  viability, T/C: 44.1%
Second compound 0.03 µM, first compound 3.16 µM
  viability, T/C: 41.2%
Second compound 0.03 µM, first compound 10 µM
  viability, T/C: 32%
[17]
  viability, T/C: 44.1%
[18]
  viability, T/C: 34.9%
[19]
  viability, T/C: 34.9%
[20]
  viability, T/C: 32.4%
Second compound 0.0949 µM, first compound 3.16 µM
  viability, T/C: 31.1%
Second compound 0.0949 µM, first compound 10 µM
  viability, T/C: 25.4%
[21]
  viability, T/C: 27.4%
[22]
  viability, T/C: 27.9%
[23]
  viability, T/C: 28%
[24]
  viability, T/C: 30.1%
Second compound 0.3 µM, first compound 3.16 µM
  viability, T/C: 27.8%
Second compound 0.3 µM, first compound 10 µM
  viability, T/C: 24.4%

## CCc1c2c(nc3ccc(O)cc13)-c1cc3c(c(=O)n1C2)COC(=O)[C@]3(O)CC + CCn1c(-c2cc(N3CCN(C)CC3)cnc2C(C)OC)c2c3cc(ccc31)-c1csc(n1)CC(NC(=O)C1CC1C)C(=O)N1CCCC(N1)C(=O)OCC(C)(C)C2
Second compound 0.000949 µM
  IC50: 46.6 nM
Second compound 0.003 µM
  IC50: 28.1 nM
Second compound 0.00949 µM
  IC50: 19.6 nM
Second compound 0.03 µM
  IC50: 7.33 nM
Second compound 0.0949 µM
  IC50: < 0.949 nM
Second compound 0.3 µM
  IC50: < 0.949 nM
Second compound 0.000949 µM, first compound 0.000949 µM
  viability, T/C: 90.3%
Second compound 0.000949 µM, first compound 0.003 µM
  viability, T/C: 89.5%
Second compound 0.000949 µM, first compound 0.00949 µM
  viability, T/C: 66.3%
Second compound 0.000949 µM, first compound 0.03 µM
  viability, T/C: 56%
Second compound 0.000949 µM, first compound 0.0949 µM
  viability, T/C: 42.1%
Second compound 0.000949 µM, first compound 0.3 µM
  viability, T/C: 23.5%
Second compound 0.003 µM, first compound 0.000949 µM
  viability, T/C: 89.9%
Second compound 0.003 µM, first compound 0.003 µM
  viability, T/C: 83.6%
Second compound 0.003 µM, first compound 0.00949 µM
  viability, T/C: 67.5%
Second compound 0.003 µM, first compound 0.03 µM
  viability, T/C: 46.3%
Second compound 0.003 µM, first compound 0.0949 µM
  viability, T/C: 36.4%
Second compound 0.003 µM, first compound 0.3 µM
  viability, T/C: 21.8%
Second compound 0.00949 µM, first compound 0.000949 µM
  viability, T/C: 82.2%
Second compound 0.00949 µM, first compound 0.003 µM
  viability, T/C: 78.4%
Second compound 0.00949 µM, first compound 0.00949 µM
  viability, T/C: 55.7%
Second compound 0.00949 µM, first compound 0.03 µM
  viability, T/C: 41.8%
Second compound 0.00949 µM, first compound 0.0949 µM
  viability, T/C: 36.5%
Second compound 0.00949 µM, first compound 0.3 µM
  viability, T/C: 18.7%
Second compound 0.03 µM, first compound 0.000949 µM
  viability, T/C: 58.2%
Second compound 0.03 µM, first compound 0.003 µM
  viability, T/C: 55.5%
Second compound 0.03 µM, first compound 0.00949 µM
  viability, T/C: 50.5%
Second compound 0.03 µM, first compound 0.03 µM
  viability, T/C: 37.8%
Second compound 0.03 µM, first compound 0.0949 µM
  viability, T/C: 30.2%
Second compound 0.03 µM, first compound 0.3 µM
  viability, T/C: 16.6%
Second compound 0.0949 µM, first compound 0.000949 µM
  viability, T/C: 44.3%
Second compound 0.0949 µM, first compound 0.003 µM
  viability, T/C: 39.1%
Second compound 0.0949 µM, first compound 0.00949 µM
  viability, T/C: 48.9%
Second compound 0.0949 µM, first compound 0.03 µM
  viability, T/C: 30.1%
Second compound 0.0949 µM, first compound 0.0949 µM
  viability, T/C: 25.9%
Second compound 0.0949 µM, first compound 0.3 µM
  viability, T/C: 14.3%
Second compound 0.3 µM, first compound 0.000949 µM
  viability, T/C: 32.4%
Second compound 0.3 µM, first compound 0.003 µM
  viability, T/C: 31.5%
Second compound 0.3 µM, first compound 0.00949 µM
  viability, T/C: 28.2%
Second compound 0.3 µM, first compound 0.03 µM
  viability, T/C: 30.1%
Second compound 0.3 µM, first compound 0.0949 µM
  viability, T/C: 21.2%
Second compound 0.3 µM, first compound 0.3 µM
  viability, T/C: 11.5%

## Nc1ccn(C2OC(CO)C(O)C2(F)F)c(=O)n1 (stereo unspecified) + CCn1c(-c2cc(N3CCN(C)CC3)cnc2C(C)OC)c2c3cc(ccc31)-c1csc(n1)CC(NC(=O)C1CC1C)C(=O)N1CCCC(N1)C(=O)OCC(C)(C)C2
Second compound 0.000949 µM
  IC50: > 1000 nM
Second compound 0.003 µM
  IC50: > 1000 nM
Second compound 0.00949 µM
  IC50: > 1000 nM
Second compound 0.03 µM
  IC50: 90.2 nM
Second compound 0.0949 µM
  IC50: < 3.16 nM
Second compound 0.3 µM
  IC50: < 3.16 nM
Second compound 0.000949 µM, first compound 0.00316 µM
  viability, T/C: 88.9%
Second compound 0.000949 µM, first compound 0.01 µM
  viability, T/C: 93.5%
[1]
  viability, T/C: 76.6%
[2]
  viability, T/C: 73.6%
[3]
  viability, T/C: 67.1%
[4]
  viability, T/C: 71.1%
Second compound 0.003 µM, first compound 0.00316 µM
  viability, T/C: 101%
Second compound 0.003 µM, first compound 0.01 µM
  viability, T/C: 84%
[5]
  viability, T/C: 70%
[6]
  viability, T/C: 65%
[7]
  viability, T/C: 65.3%
[8]
  viability, T/C: 61.8%
Second compound 0.00949 µM, first compound 0.00316 µM
  viability, T/C: 80.1%
Second compound 0.00949 µM, first compound 0.01 µM
  viability, T/C: 62.9%
[9]
  viability, T/C: 60.7%
[10]
  viability, T/C: 57.8%
[11]
  viability, T/C: 56.9%
[12]
  viability, T/C: 52.7%
Second compound 0.03 µM, first compound 0.00316 µM
  viability, T/C: 72%
Second compound 0.03 µM, first compound 0.01 µM
  viability, T/C: 53.4%
[13]
  viability, T/C: 56.5%
[14]
  viability, T/C: 47.1%
[15]
  viability, T/C: 52.3%
[16]
  viability, T/C: 46.1%
Second compound 0.0949 µM, first compound 0.00316 µM
  viability, T/C: 42.1%
Second compound 0.0949 µM, first compound 0.01 µM
  viability, T/C: 46.2%
[17]
  viability, T/C: 40.6%
[18]
  viability, T/C: 38.6%
[19]
  viability, T/C: 40.6%
[20]
  viability, T/C: 36.4%
Second compound 0.3 µM, first compound 0.00316 µM
  viability, T/C: 33.9%
Second compound 0.3 µM, first compound 0.01 µM
  viability, T/C: 35%
[21]
  viability, T/C: 32.5%
[22]
  viability, T/C: 30.1%
[23]
  viability, T/C: 31.4%
[24]
  viability, T/C: 28.8%
